Test [1] has as its target T1, NLRP3 (Homo sapiens, UniProt Q96P20). The experiment in a line: THP-1 cells pyroptosis assay (LPS + nigericin, resazurin read-out). It counts as cell-based. Particulars: NLRP3 inhibitory activity, 1 μg/ml LPS, 5 μM nigericin. The arrangement: Seed THP-1 cells (25,000 cells/well) containing 1.0 μg/ml LPS; host or cells: THP-1 cells. How it is done: The cells were routinely passaged and grown to confluency (˜10^6 cells/ml). On the day of the experiment, THP-1 cells were harvested and resuspended into RPMI medium (without FBS). The cells were then counted and viability (>90%) checked by Trypan blue (Sigma #T8154). […] To this diluted cell solution was added LPS (Sigma #L4524) to give a 1 μg/ml Final Assay Concentration (FAC). 40 μl of the final preparation was aliquoted into each well of a 96-well plate. The plate thus prepared was used for compound screening. The following method step-by-step assay was followed for compound screening. • 1. […] Incubate for 3 hrs at 37° C., 5% CO2 • 4. Add 5 μl nigericin (Sigma #N7143) (FAC 5 μM) to all wells • 5. Incubate for 1 hr at 37° C., 5% CO2 • 6. At the end of the incubation period, spin plates at 300×g for 3 mins and remove supernatant • 7. Then add 50 μl of resazurin (Sigma #R7017) (FAC 100 μM resazurin in RPMI medium without FBS) and incubate plates for a further 1-2 hrs at 37° C. and 5% CO2 • 8.

Test [2] deals with T1, NLRP3. The experiment in a line: Human whole blood IL-1β release assay (LPS + nigericin, AlphaLisa). The class given is cell-based. The arrangement: Human whole blood in Li-heparin tubes was obtained from healthy donors; from tissue; host or cells: human whole blood from healthy donors. Particulars: NLRP3 inhibitory activity, 1 μg/ml LPS, 10 μM nigericin, read-out: HWB IC50. How it is done:
For systemic delivery, the ability to inhibit NLRP3 when the compounds are present within the bloodstream is of great importance. For this reason, the NLRP3 inhibitory activity of a number of compounds in human whole blood was investigated in accordance with the following protocol. Human whole blood in Li-heparin tubes was obtained from healthy donors from a volunteer donor panel. • 1. […] Incubate for 3 hrs at 37° C., 5% CO2 • 4. Add 10 μl nigericin (Sigma #N7143) (10 μM FAC) to all wells • 5. Incubate for 1 hr at 37° C., 5% CO2 • 6. At the end of the incubation period, spin plates at 300×g for 5 mins to pellet cells and remove 20 μl of supernatant and add to 96-well v-bottom plates for IL-1β analysis (note: these plates containing the supernatants can be stored at -80° C. to be analysed at a later date) • 7. IL-1β was measured according to the manufacturer protocol (Perkin Elmer-AlphaLisa IL-1 Kit A[…]-5000) • 8.

Structures can show the parent of a compound that is named as a salt.

T1 sequence (Q96P20 whole entry): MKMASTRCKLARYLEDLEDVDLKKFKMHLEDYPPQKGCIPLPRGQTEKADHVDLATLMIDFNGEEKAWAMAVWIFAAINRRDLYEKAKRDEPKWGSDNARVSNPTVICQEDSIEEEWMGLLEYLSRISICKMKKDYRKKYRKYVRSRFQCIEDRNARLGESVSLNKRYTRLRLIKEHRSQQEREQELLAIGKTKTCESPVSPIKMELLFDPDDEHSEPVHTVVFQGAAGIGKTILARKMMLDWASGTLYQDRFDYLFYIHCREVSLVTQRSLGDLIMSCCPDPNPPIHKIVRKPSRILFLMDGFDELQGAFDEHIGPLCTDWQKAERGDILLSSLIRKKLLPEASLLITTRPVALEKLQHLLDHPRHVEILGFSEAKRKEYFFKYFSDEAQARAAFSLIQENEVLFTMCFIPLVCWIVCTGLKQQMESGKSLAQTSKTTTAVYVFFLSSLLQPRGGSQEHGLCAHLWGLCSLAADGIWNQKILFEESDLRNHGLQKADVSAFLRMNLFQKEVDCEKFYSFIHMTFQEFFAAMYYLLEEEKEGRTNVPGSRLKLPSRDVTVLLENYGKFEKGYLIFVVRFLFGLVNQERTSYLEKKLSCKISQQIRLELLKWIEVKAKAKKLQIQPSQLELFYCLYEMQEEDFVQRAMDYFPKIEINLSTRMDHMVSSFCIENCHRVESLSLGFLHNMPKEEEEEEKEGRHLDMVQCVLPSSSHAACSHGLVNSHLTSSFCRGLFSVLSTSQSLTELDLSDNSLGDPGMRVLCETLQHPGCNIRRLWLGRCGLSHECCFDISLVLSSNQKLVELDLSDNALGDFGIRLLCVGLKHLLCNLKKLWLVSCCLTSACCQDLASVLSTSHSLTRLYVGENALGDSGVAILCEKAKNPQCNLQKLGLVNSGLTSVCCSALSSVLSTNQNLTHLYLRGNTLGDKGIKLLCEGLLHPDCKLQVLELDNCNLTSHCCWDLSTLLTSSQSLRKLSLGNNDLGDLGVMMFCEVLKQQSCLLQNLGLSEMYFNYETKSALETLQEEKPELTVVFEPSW

For the compound `CC(C)n1ccc(S(=O)(=O)NC(=O)Nc2cc(Br)ccc2Sc2nnnn2C)n1` [Example 28, N-((5-Bromo-2-((1-methyl-1H-tetrazol-5-yl)thio)phenyl)carbamoyl)-1-isopropyl-1H-pyrazole-3-sulfonamide], the half-maximal inhibitory concentration (IC50) at NLRP3 [1] was 1000 to 5000 nM; at NLRP3 [2], 5000 to 10000 nM.

For the compound `CC(C)n1ccc(S(=O)(=O)NC(=O)Nc2c3c(cc4c2CCC4=O)CCC3)n1` [Example 31, 1-isopropyl-N-((1-oxo-1,2,3,5,6,7-hexahydro-s-indacen-4-yl)carbamoyl)-1H-pyrazole-3-sulfonamide, sodium salt], the IC50 on NLRP3 [1] lay in the range of 1000 to 5000 nM; at NLRP3 [2] it was 5000 to 10000 nM.

Turning to `CC(C)c1cc(F)cc(C(C)C)c1CC(=O)NS(=O)(=O)c1ccc(CN(C)C)cc1` [Example 33, N-((4-((Dimethylamino)methyl)phenyl)sulfonyl)-2-(4-fluoro-2,6-diisopropylphenyl)acetamide, 2,2,2-trifluoroacetate salt], the IC50 on NLRP3 [1] and on NLRP3 [2] was 1000 to 5000 nM in each case.

As for `CC(C)c1cc(Cl)c2c(c1NC(=O)NS(=O)(=O)c1ccn(C(C)C)n1)CCC2` [Example 34, N-((7-Chloro-5-isopropyl-2,3-dihydro-1H-inden-4-yl)carbamoyl)-1-isopropyl-1H-pyrazole-3-sulfonamide], the IC50 on NLRP3 [1] is 250 to 500 nM; at NLRP3 [2], 5000 to 10000 nM.

Turning to `CC(C)n1ccc(S(=O)(=O)NC(=O)Nc2c3c(c(Cl)c4c2CCC4)CCC3)n1` [Example 35, N-((8-Chloro-1,2,3,5,6,7-hexahydro-s-indacen-4-yl)carbamoyl)-1-isopropyl-1H-pyrazole-3-sulfonamide], the half-maximal inhibitory concentration (IC50) on NLRP3 [1] was less than 250 nM; at NLRP3 [2] it was 5000 to 10000 nM.

Regarding `CC(C)n1cc(S(=O)(=O)NC(=O)Nc2c3c(c(Br)c4c2CCC4)CCC3)cn1` [Example 36, N-((8-Bromo-1,2,3,5,6,7-hexahydro-s-indacen-4-yl)carbamoyl)-1-isopropyl-1H-pyrazole-4-sulfonamide], the IC50 at NLRP3 [1] is less than 250 nM; on NLRP3 [2], 5000 to 10000 nM.

As to `CC(C)c1cc(Cl)cc(C(C)C)c1NC(=O)NS(=O)(=O)c1cnn(CC(F)(F)F)c1` [Example 40, N-((4-Chloro-2,6-diisopropylphenyl)carbamoyl)-1-(2,2,2-trifluoroethyl)-1H-pyrazole-4-sulfonamide], the IC50 on NLRP3 [1] is 250 to 500 nM; on NLRP3 [2], 1000 to 5000 nM.

Take `O=C(Nc1c2c(cc3c1CCC3)CCC2)NS(=O)(=O)c1cnn(CC(F)(F)F)c1` [Example 41, N-((1,2,3,5,6,7-Hexahydro-s-indacen-4-yl)carbamoyl)-1-(2,2,2-trifluoroethyl)-1H-pyrazole-4-sulfonamide, sodium salt]: the half-inhibitory concentration (IC50) lay in the range of 250 to 500 nM at NLRP3 [1] and 5000 to 10000 nM at NLRP3 [2].

On to `O=C(Nc1c2c(cc3c1CCC3)CCC2)NS(=O)(=O)c1ccn(CC(F)(F)F)n1` [Example 42, N-((1,2,3,5,6,7-Hexahydro-s-indacen-4-yl)carbamoyl)-1-(2,2,2-trifluoroethyl)-1H-pyrazole-3-sulfonamide], for which the results for the IC50 at NLRP3 [1] and on NLRP3 [2] were less than 250 nM and 1000 to 5000 nM, respectively.

On to `CC(C)n1nncc1S(=O)(=O)NC(=O)Nc1c2c(cc3c1CCC3)CCC2` [Example 47, N-((1,2,3,5,6,7-Hexahydro-s-indacen-4-yl)carbamoyl)-1-isopropyl-1H-1,2,3-triazole-5-sulfonamide], for which the figures for the IC50 on NLRP3 [1] and at NLRP3 [2] were less than 250 nM and 1000 to 5000 nM, respectively.

With `CC(C)n1ncc(S(=O)(=O)NC(=O)Nc2c3c(cc4c2CCC4)CCC3)n1` [Example 48, N-((1,2,3,5,6,7-Hexahydro-s-indacen-4-yl)carbamoyl)-2-isopropyl-2H-1,2,3-triazole-4-sulfonamide], the results for the IC50 on NLRP3 [1] and on NLRP3 [2] were less than 250 nM and 1000 to 5000 nM, respectively.

With `CC(C)n1nc(S(=O)(=O)NC(=O)Nc2c3c(cc4c2CCC4)CCC3)cc1C(C)(C)O` [Example 49, N-((1,2,3,5,6,7-Hexahydro-s-indacen-4-yl)carbamoyl)-5-(2-hydroxypropan-2-yl)-1-isopropyl-1H-pyrazole-3-sulfonamide], the concentration for half-maximal inhibition (IC50) is less than 250 nM on NLRP3 [1] and 500 to 1000 nM on NLRP3 [2].

As to `COC1(c2cc(S(=O)(=O)NC(=O)Nc3c4c(cc5c3CCC5)CCC4)nn2C)CCCC1` [Example 52, N-((1,2,3,5,6,7-hexahydro-s-indacen-4-yl)carbamoyl)-5-(1-methoxycyclopentyl)-1-methyl-1H-pyrazole-3-sulfonamide], the IC50 at NLRP3 [1] was less than 250 nM; on NLRP3 [2], 500 to 1000 nM.

As to `COC(C)c1cc(S(=O)(=O)NC(=O)Nc2c3c(cc4c2CCC4)CCC3)nn1C` (stereo not drawn) [Example 53, N-((1,2,3,5,6,7-Hexahydro-s-indacen-4-yl)carbamoyl)-5-(1-methoxyethyl)-1-methyl-1H-pyrazole-3-sulfonamide], the IC50 at NLRP3 [1] was less than 250 nM; at NLRP3 [2], 500 to 1000 nM.

With `CC(O)c1cc(S(=O)(=O)NC(=O)Nc2c3c(cc4c2CCC4)CCC3)nn1C(C)C` (stereo not drawn) [Example 54, N-((1,2,3,5,6,7-Hexahydro-s-indacen-4-yl)carbamoyl)-5-(1-hydroxyethyl)-1-isopropyl-1H-pyrazole-3-sulfonamide], the half-maximal inhibitory concentration (IC50) on NLRP3 [1] is less than 250 nM; at NLRP3 [2] it was 500 to 1000 nM.

Take `CC(C)n1cc(F)c(S(=O)(=O)NC(=O)Nc2c3c(cc4c2CCC4)CCC3)n1` [Example 55, 4-Fluoro-N-((1,2,3,5,6,7-hexahydro-s-indacen-4-yl)carbamoyl)-1-isopropyl-1H-pyrazole-3-sulfonamide]: the values for the IC50 at NLRP3 [1] and on NLRP3 [2] were less than 250 nM and 500 to 1000 nM, respectively.

As for `CC(C)(CN1CCC1)n1ccc(S(=O)(=O)NC(=O)Nc2c3c(cc4c2CCC4)CCC3)n1` [Example 56, 1-(1-(Azetidin-1-yl)-2-methylpropan-2-yl)-N-((1,2,3,5,6,7-hexahydro-s-indacen-4-yl)carbamoyl)-1H-pyrazole-3-sulfonamide], the results for the half-inhibitory concentration (IC50) on NLRP3 [1] and on NLRP3 [2] were less than 250 nM and 250 to 500 nM, respectively.

On to `Cc1cc(CN(C)C)cc(S(=O)(=O)NC(=O)Nc2c3c(cc4c2CCC4)CCC3)c1` [Example 57, 3-((Dimethylamino)methyl)-N-((1,2,3,5,6,7-hexahydro-s-indacen-4-yl)carbamoyl)-5-methylbenzenesulfonamide, sodium salt], for which the values for the IC50 on NLRP3 [1] and on NLRP3 [2] were less than 250 nM and 1000 to 5000 nM, respectively.

For `O=C(Nc1c2c(cc3c1CCC3)CCC2)NS(=O)(=O)c1ccn(C2CCC2)n1` [Example 59, 1-Cyclobutyl-N-((1,2,3,5,6,7-hexahydro-s-indacen-4-yl)carbamoyl)-1H-pyrazole-3-sulfonamide], the concentration for half-maximal inhibition (IC50) on NLRP3 [1] was less than 250 nM; on NLRP3 [2] it was 1000 to 5000 nM.

Regarding `CN(C)CC1(n2ccc(S(=O)(=O)NC(=O)Nc3c4c(cc5c3CCC5)CCC4)n2)CCC1` [Example 60, 1-(1-((Dimethylamino)methyl)cyclobutyl)-N-((1,2,3,5,6,7-hexahydro-s-indacen-4-yl)carbamoyl)-1H-pyrazole-3-sulfonamide], the IC50 on NLRP3 [1] and on NLRP3 [2] was less than 250 nM in each case.

As to `CC(C)n1ccc(S(=O)(=O)NC(=O)Nc2c3c(c(F)c4c2CCC4)CCC3)n1` [Example 61, N-((8-Fluoro-1,2,3,5,6,7-hexahydro-s-indacen-4-yl)carbamoyl)-1-isopropyl-1H-pyrazole-3-sulfonamide, sodium salt], the IC50 on NLRP3 [1] was less than 250 nM; on NLRP3 [2], 500 to 1000 nM.

In the case of `CC(C)n1nc(S(=O)(=O)NC(=O)Nc2c3c(cc4c2CCC4)CCC3)cc1F` [Example 62, 5-Fluoro-N-((1,2,3,5,6,7-hexahydro-s-indacen-4-yl)carbamoyl)-1-isopropyl-1H-pyrazole-3-sulfonamide, sodium salt], the values for the IC50 at NLRP3 [1] and at NLRP3 [2] were less than 250 nM and more than 10000 nM, respectively.

Regarding `O=C(Nc1c2c(cc3c1CCC3)CCC2)NS(=O)(=O)c1ccn(CC(F)F)n1` [Example 63, 1-(2,2-Difluoroethyl)-N-((1,2,3,5,6,7-hexahydro-s-indacen-4-yl)carbamoyl)-1H-pyrazole-3-sulfonamide, sodium salt], the IC50 at NLRP3 [1] was less than 250 nM; at NLRP3 [2], 1000 to 5000 nM.

In the case of `CC(C)(CN1CCCC1)n1ccc(S(=O)(=O)NC(=O)Nc2c3c(cc4c2CCC4)CCC3)n1` [Example 65, N-((1,2,3,5,6,7-Hexahydro-s-indacen-4-yl)carbamoyl)-1-(2-methyl-1-(pyrrolidin-1-yl)propan-2-yl)-1H-pyrazole-3-sulfonamide, sodium salt], the half-inhibitory concentration (IC50) on NLRP3 [1] was less than 250 nM; at NLRP3 [2], 250 to 500 nM.
